One may read the IC50 as the point on the concentration scale where inhibition reaches its midpoint.

SMILES strings stand for the structures. Positions of bridges follow the written chain, without caps; N, C: chain ends. Non-standard residues stand in square brackets, D forms with d. Residues, ends and D or L forms follow the SMILES beside them. 2Nal = N[C@@H](Cc1ccc2ccccc2c1)C(=O)O; Cit = NC(=O)NCCC[C@H](N)C(=O)O; Ahp(2) = CCCCC[C@H](N)C(=O)O; Tle = CC(C)(C)[C@H](N)C(=O)O; NHexGly = CCCCCCNCC(=O)O; Nle = CCCC[C@H](N)C(=O)O; Orn = NCCC[C@H](N)C(=O)O; Dab = NCC[C@H](N)C(=O)O

The first test concerns the target T1, mouse VISTA (mVISTA) (Mus musculus, UniProt Q9D659).
T1 construct: expressed in transfected cells; host or cells: Human embryonic kidney 293T cells
T1 sequence (Q9D659 33-308): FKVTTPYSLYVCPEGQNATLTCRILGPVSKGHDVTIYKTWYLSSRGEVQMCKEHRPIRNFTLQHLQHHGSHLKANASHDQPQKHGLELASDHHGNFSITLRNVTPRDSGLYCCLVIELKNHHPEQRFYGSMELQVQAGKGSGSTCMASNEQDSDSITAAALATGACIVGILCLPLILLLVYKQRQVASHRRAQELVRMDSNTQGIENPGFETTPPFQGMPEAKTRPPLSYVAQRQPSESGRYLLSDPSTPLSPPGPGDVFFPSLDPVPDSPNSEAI
In words: Cell-Based Binding High-Content Assay For mVISTA (HC CBA mVISTA). Conditions: 293T cells expressing mouse VISTA; competition with biotinylated peptide (2 nM); read-out: HC CBA mVISTA IC50. The method, boiled down: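 293T cells expressing mouse VISTA, with compounds added either after seeding ("no wash") or before seeding and then washed out after 1 h. Biotinylated peptide 2 nM for 30 min at room temperature, then detection with Alexa 647–streptavidin. After fixation with Hoechst stain, plates were high-content imaged; IC50 from four-parameter logistic fit.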
As to `CCCCCCN1CC(=O)N[C@@H](Cc2ccc(O)cc2)C(=O)N[C@@H](C(C)C)C(=O)NCC(=O)N[C@@H](CCCNC(=N)N)C(=O)N[C@@H](CC(C)C)C(=O)N[C@@H](CCCCC)C(=O)N2CCC[C@H]2C(=O)N[C@@H](C(C)C)C(=O)N[C@@H](CC(=O)O)C(=O)N[C@H](C(=O)N[C@@H](CO)C(=O)N[C@@H](CCCCN)C(=O)N[C@@H](CCC(N)=O)C(=O)O)CSCC(=O)N[C@@H](Cc2ccc3ccccc3c2)C(=O)N[C@@H](Cc2ccc(O)cc2)C(=O)N[C@@H](CC(=O)O)C1=O` [Example 1165] ({CH2CO}-[2Nal]YD[NHexGly]YVGRL[Ahp(2)]PVDCSKQ-OH; thioether N-14), the IC50 is 28.2 nM.

In the case of `CCCCCCN1CC(=O)N[C@@H](Cc2ccc(O)cc2)C(=O)N[C@@H](C(C)C)C(=O)NCC(=O)N[C@@H](CCCNC(=N)N)C(=O)N[C@@H](CC(C)C)C(=O)N[C@@H](CCCCC)C(=O)N2CCC[C@H]2C(=O)N[C@@H](C(C)C)C(=O)N[C@@H](CC(=O)O)C(=O)N[C@H](C(=O)N[C@@H](CO)C(=O)N[C@@H](CCN)C(=O)N[C@@H](CCC(N)=O)C(=O)O)CSCC(=O)N[C@@H](Cc2ccc3ccccc3c2)C(=O)N[C@@H](Cc2ccc(O)cc2)C(=O)N[C@@H](CC(=O)O)C1=O` [Example 1166] ({CH2CO}-[2Nal]YD[NHexGly]YVGRL[Ahp(2)]PVDCS[Dab]Q-OH; thioether N-14), the concentration for half-maximal inhibition (IC50) was 18.8 nM.

The same test, now with this note: read-out: HC CBA mVISTA IC50.
For `CCCCCCN1CC(=O)N[C@@H](Cc2ccc(O)cc2)C(=O)N[C@@H](CCCC)C(=O)N[C@@H](CC(=O)O)C(=O)N[C@@H](CCCNC(=N)N)C(=O)N[C@@H](CC(C)C)C(=O)N[C@@H](CCCCC)C(=O)N2CCC[C@H]2C(=O)N[C@@H](C(C)C)C(=O)N[C@@H](CC(=O)O)C(=O)N[C@H](C(=O)N[C@@H](CC(=O)O)C(N)=O)CSCC(=O)N[C@@H](Cc2ccccc2)C(=O)N[C@@H](Cc2c[nH]c3ccccc23)C(=O)N[C@@H](CC(=O)O)C1=O` [Example 1352] ({CH2CO}-FWD[NHexGly]Y[Nle]DRL[Ahp(2)]PVDCD-NH2; thioether N-14), the IC50 was determined as 12.3 nM. Consider `CCCCCCN1CC(=O)N[C@@H](Cc2ccc(O)cc2)C(=O)N[C@@H](CCCC)C(=O)N[C@@H](CC(=O)O)C(=O)N[C@@H](CCCN)C(=O)N[C@@H](CC(C)C)C(=O)N[C@@H](CCCCC)C(=O)N2CCC[C@H]2C(=O)N[C@@H](C(C)C)C(=O)N[C@@H](CC(=O)O)C(=O)N[C@H](C(=O)N[C@@H](CC(=O)O)C(N)=O)CSCC(=O)N[C@@H](Cc2ccccc2)C(=O)N[C@@H](Cc2c[nH]c3ccccc23)C(=O)N[C@@H](CC(=O)O)C1=O` [Example 1353] ({CH2CO}-FWD[NHexGly]Y[Nle]D[Orn]L[Ahp(2)]PVDCD-NH2; thioether N-14), for which the IC50 was 11.3 nM. On the same count and under the same terms, in the case of `CCCCCCN1CC(=O)N[C@@H](Cc2ccc(O)cc2)C(=O)N[C@@H](CCCCC)C(=O)N[C@@H](CC(N)=O)C(=O)N[C@@H](CCCNC(=N)N)C(=O)N[C@@H](CC(C)C)C(=O)N[C@@H](CCCCC)C(=O)N2CCC[C@H]2C(=O)N[C@@H](C(C)C)C(=O)N[C@@H](CO)C(=O)N[C@H](C(=O)NCC(N)=O)CSCC(=O)N[C@@H](Cc2ccccc2)C(=O)N[C@@H](Cc2c[nH]c3ccccc23)C(=O)N[C@@H](CC(=O)O)C1=O` [Example 1354] ({CH2CO}-FWD[NHexGly]Y[Ahp(2)]NRL[Ahp(2)]PVSCG-NH2; thioether N-14) it was 20.3 nM. For the molecule `CCCCCCN1CC(=O)N[C@@H](Cc2ccc(O)cc2)C(=O)N[C@@H](CCCC)C(=O)N[C@@H](CC(=O)O)C(=O)N[C@@H](CCCN)C(=O)N[C@@H](CC(C)C)C(=O)N[C@@H](CCCCC)C(=O)N2CCC[C@H]2C(=O)N[C@@H](C(C)C)C(=O)N[C@@H](CO)C(=O)N[C@H](C(=O)NCC(=O)O)CSCC(=O)N[C@@H](Cc2ccccc2)C(=O)N[C@@H](Cc2c[nH]c3ccccc23)C(=O)N[C@@H](CC(=O)O)C1=O` [Example 1355] ({CH2CO}-FWD[NHexGly]Y[Nle]D[Orn]L[Ahp(2)]PVSCG-OH; thioether N-14), the 50% inhibitory concentration (IC50) was found to be 33.8 nM.

For the molecule `CCCCCCN1CC(=O)N[C@@H](Cc2ccc(O)cc2)C(=O)N[C@@H](CCCC)C(=O)N[C@@H](CC(=O)O)C(=O)N[C@@H](CCCNC(=N)N)C(=O)N[C@@H](CC(C)C)C(=O)N[C@@H](CCCCC)C(=O)N2CCC[C@H]2C(=O)N[C@@H](C(C)C)C(=O)N[C@@H](CO)C(=O)N[C@H](C(=O)NCC(=O)O)CSCC(=O)N[C@@H](Cc2ccccc2)C(=O)N[C@@H](Cc2c[nH]c3ccccc23)C(=O)N[C@@H](CC(=O)O)C1=O` [Example 1356] ({CH2CO}-FWD[NHexGly]Y[Nle]DRL[Ahp(2)]PVSCG-OH; thioether N-14), the IC50 was 28.7 nM. In the case of `CCCCCCN1CC(=O)N[C@@H](Cc2ccc(O)cc2)C(=O)N[C@@H](CCCCC)C(=O)N[C@@H](CC(N)=O)C(=O)N[C@@H](CCCNC(=N)N)C(=O)N[C@@H](CC(C)C)C(=O)N[C@@H](CCCCC)C(=O)N2CCC[C@H]2C(=O)N[C@@H](C(C)C)C(=O)N[C@@H](CO)C(=O)N[C@H](C(=O)NCC(=O)O)CSCC(=O)N[C@@H](Cc2ccccc2)C(=O)N[C@@H](Cc2c[nH]c3ccccc23)C(=O)N[C@@H](CC(=O)O)C1=O` [Example 1357] ({CH2CO}-FWD[NHexGly]Y[Ahp(2)]NRL[Ahp(2)]PVSCG-OH; thioether N-14), the half-inhibitory concentration (IC50) was 31.6 nM. Still for that read-out and setting: in the case of `CCCCCCN1CC(=O)N[C@@H](Cc2ccc(O)cc2)C(=O)N[C@@H](CC(C)C)C(=O)NCC(=O)N[C@@H](CCCNC(=N)N)C(=O)N[C@@H](CC(C)C)C(=O)N[C@@H](CCCCC)C(=O)N2CCC[C@H]2C(=O)N[C@@H](C(C)C)C(=O)N[C@@H](CO)C(=O)N[C@H](C(=O)NCC(N)=O)CSCC(=O)N[C@@H](Cc2ccccc2)C(=O)N[C@@H](Cc2c[nH]c3ccccc23)C(=O)N[C@@H](CC(=O)O)C1=O` [Example 1358] ({CH2CO}-FWD[NHexGly]YLGRL[Ahp(2)]PVSCG-NH2; thioether N-14) it was 19.5 nM; in that of `CCCCCCN1CC(=O)N[C@@H](Cc2ccc(O)cc2)C(=O)N[C@@H](CC(C)C)C(=O)N[C@@H](CC(=O)O)C(=O)N[C@@H](CCCN)C(=O)N[C@@H](CC(C)C)C(=O)N[C@@H](CCCCC)C(=O)N2CCC[C@H]2C(=O)N[C@@H](C(C)C)C(=O)N[C@@H](CO)C(=O)N[C@H](C(=O)NCC(N)=O)CSCC(=O)N[C@@H](Cc2ccccc2)C(=O)N[C@@H](Cc2c[nH]c3ccccc23)C(=O)N[C@@H](CC(=O)O)C1=O` [Example 1359] ({CH2CO}-FWD[NHexGly]YLD[Orn]L[Ahp(2)]PVSCG-NH2; thioether N-14), 17.1 nM. Still for that read-out and setting: the value for `CCCCCCN1CC(=O)N[C@@H](Cc2ccc(O)cc2)C(=O)N[C@@H](CCCC)C(=O)N[C@@H](CC(N)=O)C(=O)N[C@@H](CCCNC(=N)N)C(=O)N[C@@H](CC(C)C)C(=O)N[C@@H](CCCCC)C(=O)N2CCC[C@H]2C(=O)N[C@@H](C(C)C)C(=O)N[C@@H](CCCNC(=N)N)C(=O)N[C@H](C(=O)NCC(=O)O)CSCC(=O)N[C@@H](Cc2ccccc2)C(=O)N[C@@H](Cc2c[nH]c3ccccc23)C(=O)N[C@@H](CC(=O)O)C1=O` [Example 1360] ({CH2CO}-FWD[NHexGly]Y[Nle]NRL[Ahp(2)]PVRCG-OH; thioether N-14) was 28.4 nM; that for `CCCCCCN1CC(=O)N[C@@H](Cc2ccc(O)cc2)C(=O)N[C@@H](CCCC)C(=O)N[C@@H](CC(N)=O)C(=O)N[C@@H](CCCNC(=N)N)C(=O)N[C@@H](CC(C)C)C(=O)N[C@@H](CCCCC)C(=O)N2CCC[C@H]2C(=O)N[C@@H](C(C)C)C(=O)N[C@@H](CC(=O)O)C(=O)N[C@H](C(=O)NCC(=O)O)CSCC(=O)N[C@@H](Cc2ccccc2)C(=O)N[C@@H](Cc2c[nH]c3ccccc23)C(=O)N[C@@H](CC(=O)O)C1=O` [Example 1361] ({CH2CO}-FWD[NHexGly]Y[Nle]NRL[Ahp(2)]PVDCG-OH; thioether N-14) was 5.2 nM. With `CCCCCCN1CC(=O)N[C@@H](Cc2ccc(O)cc2)C(=O)N[C@@H](CCCC)C(=O)N[C@@H](CC(N)=O)C(=O)N[C@@H](CCCNC(N)=O)C(=O)N[C@@H](CC(C)C)C(=O)N[C@@H](CCCCC)C(=O)N2CCC[C@H]2C(=O)N[C@@H](C(C)C)C(=O)N[C@@H](CC(=O)O)C(=O)N[C@H](C(=O)NCC(=O)O)CSCC(=O)N[C@@H](Cc2ccccc2)C(=O)N[C@@H](Cc2c[nH]c3ccccc23)C(=O)N[C@@H](CC(=O)O)C1=O` [Example 1363] ({CH2CO}-FWD[NHexGly]Y[Nle]N[Cit]L[Ahp(2)]PVDCG-OH; thioether N-14), the IC50 is 4 nM. For the molecule `CCCCCCN1CC(=O)N[C@@H](Cc2ccc(O)cc2)C(=O)N[C@@H](CCCC)C(=O)N[C@@H](CC(N)=O)C(=O)N[C@@H](CCCNC(=N)N)C(=O)N[C@@H](CC(C)C)C(=O)N[C@@H](CCCCC)C(=O)N2CCC[C@H]2C(=O)N[C@@H](C(C)(C)C)C(=O)N[C@@H](CO)C(=O)N[C@H](C(=O)NCC(N)=O)CSCC(=O)N[C@@H](Cc2ccccc2)C(=O)N[C@@H](Cc2c[nH]c3ccccc23)C(=O)N[C@@H](CC(=O)O)C1=O` [Example 1364] ({CH2CO}-FWD[NHexGly]Y[Nle]NRL[Ahp(2)]P[Tle]SCG-NH2; thioether N-14), the IC50 came out at 44 nM. Same read-out and setting: in the case of `CCCCCCN1CC(=O)N[C@@H](Cc2ccc(O)cc2)C(=O)N[C@@H](CCCC)C(=O)N[C@@H](CC(=O)O)C(=O)N[C@@H](CCCN)C(=O)N[C@@H](CC(C)C)C(=O)N[C@@H](CCCCC)C(=O)N2CCC[C@H]2C(=O)N[C@@H](C(C)C)C(=O)N[C@@H](CC(=O)O)C(=O)N[C@H](C(=O)N[C@@H](CO)C(N)=O)CSCC(=O)N[C@@H](Cc2ccccc2)C(=O)N[C@@H](Cc2c[nH]c3ccccc23)C(=O)N[C@@H](CC(=O)O)C1=O` [Example 1365] ({CH2CO}-FWD[NHexGly]Y[Nle]D[Orn]L[Ahp(2)]PVDCS-NH2; thioether N-14) it was 7.7 nM.
